Experiments:
[1] = in vivo; cited from earlier work
Metastatic Breast Cancer [2] = test: Skipper log cell kill model projection for trastuzumab regimens (antagonistic scenario); conditions: estimated from AC group, 23%÷68%
Metastatic Breast Cancer [3] = conditions: cytotoxics q 21 days × 6, trastuzumab q week, actual Phase III data; cited from earlier work
[4] = rifampicin co-administered with erlotinib; cited from earlier work

For `CC/C(=C(\c1ccccc1)c1ccc(OCCN(C)C)cc1)c1ccccc1` [Tamoxifen], the “plasma concentration half life” value [1] is listed as 120 to 170 h.
In the case of `O=P1(N(CCCl)CCCl)NCCCO1` (stereo not shown) [C, cyclophosphamide], the “"stand alone" tumor kill rate” value (Metastatic Breast Cancer [2]) is reported as 34%.
In the case of `CC(=O)O[C@H]1C(=O)[C@@]2(C)[C@H]([C@H](OC(=O)c3ccccc3)[C@]3(O)C[C@H](OC(=O)[C@H](O)[C@@H](NC(=O)c4ccccc4)c4ccccc4)C(C)=C1C3(C)C)[C@]1(OC(C)=O)CO[C@@H]1C[C@@H]2O` [Paclitaxel], the “Median Survival” value (Metastatic Breast Cancer [3]) is given as 18.4 months.
For `CO[C@H]1/C=C/O[C@@]2(C)Oc3c(C)c(O)c4c(O)c(c(/C=N/N5CCN(C)CC5)c(O)c4c3C2=O)NC(=O)/C(C)=C\C=C\[C@H](C)[C@H](O)[C@@H](C)[C@@H](O)[C@@H](C)[C@H](OC(C)=O)[C@@H]1C` [Rifampicin], the “increased clearance of erlotinib” value [4] is listed as 3 fold.

Source: patent US7507704B1, “Receptor modulated cancer protocols” (priority 2002, dated 2009)
